Among the data in patent publication US8946282B2, “Indolin-2-one derivatives as protein kinase inhibitors” (Annji Pharmaceutical Co., Ltd., priority 2012, dated 2015) are inhibition, melting point and IC50 values, retold here.

Some results are limits rather than exact numbers.

For data set [1], the target named is aurora B (Homo sapiens, UniProt Q96GD4). Kind of data set: radioisotope-based P81 filter-binding assay, aurora B kinase. The format is biochemical. As to conditions: for inhibition at 1 µM: compound at 1.0 μM, mean values (n=2), read-out: percent inhibition of enzyme catalytic activity, Aur B (numbers in parentheses); for IC50: averaged from two independent dose-response curves, read-out: Enzyme assay IC50 Aur B. As for the experimental part:
(§1) Compounds of formula (I)-(IV) were evaluated for abilities in inhibiting protein kinases aurora B and FLT-3 activity using radioisotope-based P81 filter-binding assay (Table 1).

For data set [2], the target named is T1, FLT-3 (Homo sapiens, UniProt P36888).
T1 sequence (P36888 27-993): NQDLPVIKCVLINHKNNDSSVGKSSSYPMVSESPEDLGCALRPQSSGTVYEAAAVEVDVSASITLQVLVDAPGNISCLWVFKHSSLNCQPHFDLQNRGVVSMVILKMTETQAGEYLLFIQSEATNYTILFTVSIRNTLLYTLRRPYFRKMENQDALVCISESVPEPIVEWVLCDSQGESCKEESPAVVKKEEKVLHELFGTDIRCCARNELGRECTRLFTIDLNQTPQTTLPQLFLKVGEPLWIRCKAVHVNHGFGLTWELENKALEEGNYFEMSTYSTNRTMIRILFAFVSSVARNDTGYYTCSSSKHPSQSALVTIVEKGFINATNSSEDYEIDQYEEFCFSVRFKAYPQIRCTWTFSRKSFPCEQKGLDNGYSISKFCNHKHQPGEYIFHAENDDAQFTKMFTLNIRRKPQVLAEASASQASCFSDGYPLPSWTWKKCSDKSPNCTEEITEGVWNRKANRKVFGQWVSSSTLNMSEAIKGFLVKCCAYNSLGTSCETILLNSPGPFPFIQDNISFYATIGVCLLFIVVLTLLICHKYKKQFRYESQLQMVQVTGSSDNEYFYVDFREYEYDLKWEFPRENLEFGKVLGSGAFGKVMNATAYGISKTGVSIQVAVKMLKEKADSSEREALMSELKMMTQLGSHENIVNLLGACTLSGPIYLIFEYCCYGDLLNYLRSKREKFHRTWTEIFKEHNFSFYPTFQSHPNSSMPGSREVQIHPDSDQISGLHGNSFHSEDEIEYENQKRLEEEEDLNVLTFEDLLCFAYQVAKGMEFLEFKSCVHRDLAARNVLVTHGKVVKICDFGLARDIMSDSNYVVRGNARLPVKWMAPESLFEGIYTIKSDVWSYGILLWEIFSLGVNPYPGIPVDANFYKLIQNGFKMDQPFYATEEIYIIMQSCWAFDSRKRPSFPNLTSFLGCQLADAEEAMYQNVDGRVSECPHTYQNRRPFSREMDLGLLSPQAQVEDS
Kind of data set: radioisotope-based P81 filter-binding assay, FLT-3 kinase. The data set is classed as biochemical. Particulars: for inhibition at 1 µM: compound at 1.0 μM, mean values (n=2), read-out: percent inhibition of enzyme catalytic activity, FLT-3 (numbers in parentheses); for IC50: averaged from two independent dose-response curves, read-out: Enzyme assay IC50 FLT-3. As for the experimental part: as §1

Chain of aurora B (Q96GD4 whole entry): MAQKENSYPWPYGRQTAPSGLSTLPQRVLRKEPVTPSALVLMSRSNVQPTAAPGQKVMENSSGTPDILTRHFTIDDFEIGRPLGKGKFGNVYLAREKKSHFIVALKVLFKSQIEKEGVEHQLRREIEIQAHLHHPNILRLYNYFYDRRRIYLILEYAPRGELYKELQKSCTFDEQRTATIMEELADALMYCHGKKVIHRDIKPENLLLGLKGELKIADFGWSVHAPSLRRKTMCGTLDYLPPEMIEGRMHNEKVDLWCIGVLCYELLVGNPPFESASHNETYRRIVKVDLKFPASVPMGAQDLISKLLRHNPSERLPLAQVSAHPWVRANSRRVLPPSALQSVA

As a reminder, the inhibition is the change of the read-out against control, counted positive when it falls. By melting point is commonly meant the temperature, or range, at which the solid turns liquid. As to `COc1ccc(C(=O)NC(=O)Nc2ccc3c(c2)NC(=O)/C3=C\c2ccncc2)cc1` [D21, (Z)-4-methoxy-N-(2-oxo-3-(pyridin-4-ylmethylene)indolin-6-ylcarbamoyl)benzamide], the melting point is 270 to 275 °C (dec.). Further, in data set [1], the inhibition at 1 µM was determined as 7%. The inhibition at 1 µM in data set [2] is 3.6%.
For orientation: IC50 means the concentration needed to halve the response being measured. As for `COc1ccc(C(=O)NC(=O)Nc2ccc3c(c2)NC(=O)/C3=C\c2cccs2)cc1` [D22, (Z)-4-methoxy-N-(2-oxo-3-(thiophen-2-ylmethylene)indolin-6-ylcarbamoyl)benzamide], the melting point was 262 to 267 °C (dec.). Moreover, the IC50 in data set [1] stood at 21.5 nM. Moreover, in data set [2], the IC50 is greater than 1000 nM.
For `Cc1[nH]c(/C=C2\C(=O)Nc3cc(NC(=O)NC(=O)c4ccccc4)ccc32)c(C)c1C(=O)O` [D32, (Z)-5-((6-(3-benzoylureido)-2-oxoindolin-3-ylidene)methyl)-2,4-dimethyl-1H-pyrrole-3-carboxylic acid], the melting point is 270 to 275 °C (dec.). Besides, the IC50 in data set [1] is 2.1 nM. Besides, the IC50 in data set [2] worked out at 904 nM.
The corresponding values for `Cc1[nH]c(/C=C2\C(=O)Nc3cc(NC(=O)NC(=O)c4ccc(Cl)c(Cl)c4)ccc32)c(C)c1C(=O)O` [D34, (Z)-5-((6-(3-(3,4-dichlorobenzoyl)ureido)-2-oxoindolin-3-ylidene)methyl)-2,4-dimethyl-1H-pyrrole-3-carboxylic acid] are 295 to 300 °C (dec.), 2.1 nM and 54.2 nM.
With `Cc1[nH]c(/C=C2\C(=O)Nc3cc(NC(=O)NC(=O)c4ccc(C(F)(F)F)cc4)ccc32)c(C)c1C(=O)O` [D35, (Z)-2,4-dimethyl-5-((2-oxo-6-(3-(4-(trifluoromethyl)benzoyl)ureido)indolin-3-ylidene)methyl)-1H-pyrrole-3-carboxylic acid], the melting point was greater than 300 °C. Also, the IC50 in data set [1] amounted to 3.1 nM. Besides, the IC50 in data set [2] is 231 nM.
`Cc1[nH]c(/C=C2\C(=O)Nc3cc(NC(=O)NC(=O)c4ccc([N+](=O)[O-])cc4)ccc32)c(C)c1C(=O)O` [D38, (Z)-2,4-dimethyl-5-((6-(3-(4-nitrobenzoyl)ureido)-2-oxoindolin-3-ylidene)methyl)-1H-pyrrole-3-carboxylic acid]: the melting point is 293 to 298 °C (dec.). In addition, the IC50 in data set [1] amounted to 1.2 nM. Further, in data set [2], the IC50 is greater than 1000 nM.
The corresponding values for `Cc1cccc(C(=O)NC(=O)Nc2ccc3c(c2)NC(=O)/C3=C\c2[nH]c(C)c(CCC(=O)O)c2C)c1` [D40, (Z)-3-(2,4-dimethyl-5-((6-(3-(3-methylbenzoyl)ureido)-2-oxoindolin-3-ylidene)-methyl)-1H-pyrrol-3-yl)propanoic acid] are 240 to 245 °C (dec.), 1.9 nM and 6.1 nM.
Take `COc1cc(OC)cc(C(=O)NC(=O)Nc2ccc3c(c2)NC(=O)/C3=C\c2[nH]c(C)c(C(=O)O)c2C)c1` [D42, (Z)-5-((6-(3-(3,5-dimethoxybenzoyl)ureido)-2-oxoindolin-3-ylidene)methyl)-2,4-dimethyl-1H-pyrrole-3-carboxylic acid]: the melting point is greater than 300 °C. Besides, the IC50 in data set [1] was determined as 2.1 nM. For the same molecule, in data set [2], the IC50 was 115 nM.
For `COc1ccc(C(=O)NC(=O)Nc2ccc3c(c2)NC(=O)/C3=C\c2[nH]c(C)c(-c3ccccc3)c2C)cc1` [D43, (Z)—N-(3-((3,5-dimethyl-4-phenyl-1H-pyrrol-2-yl)methylene)-2-oxoindolin-6-ylcarbamoyl)-4-methoxybenzamide], the melting point was greater than 300 °C. Besides, in data set [1], the inhibition at 1 µM is 12.4%. Moreover, the IC50 in data set [2] was greater than 1000 nM.
`COc1ccc(C(=O)NC(=O)Nc2ccc3c(c2)NC(=O)/C3=C\c2[nH]c(C)cc2C)cc1` [D44, (Z)—N-(3-((3,5-dimethyl-1H-pyrrol-2-yl)methylene)-2-oxoindolin-6-ylcarbamoyl)-4-methoxybenzamide] yielded a melting point of 293 to 298 °C. For the same molecule, the IC50 in data set [1] came to 55.5 nM. The IC50 in data set [2] is greater than 1000 nM.
For `COc1ccc(C(=O)NC(=O)Nc2ccc3c(c2)NC(=O)/C3=C\c2ccc(C(=O)O)[nH]2)cc1` [D45, (Z)-5-((6-(3-(4-methoxybenzoyl)ureido)-2-oxoindolin-3-ylidene)-methyl)-1H-pyrrole-2-carboxylic acid], the melting point is 286 to 291 °C (dec.). The inhibition at 1 µM in data set [1] amounted to 20.9%. In addition, the inhibition at 1 µM in data set [2] came to 10%.
As to `COc1ccc(C(=O)NC(=O)Nc2ccc3c(c2)NC(=O)/C3=C\c2[nH]c(C)c(CC(=O)O)c2C)cc1` [D46], the melting point is 240 to 245 °C (dec.). The concentration for half-maximal inhibition (IC50) in data set [1] was 1.8 nM. Also, the IC50 in data set [2] worked out at 31.7 nM.
The corresponding values for `COc1ccc(C(=O)NC(=O)Nc2cc3c(cc2F)/C(=C/c2ccc[nH]2)C(=O)N3)cc1` [D48, (Z)—N-(3-((1H-pyrrol-2-yl)methylene)-5-fluoro-2-oxoindolin-6-ylcarbamoyl)-4-methoxybenzamide] are greater than 300 °C, 35.1 nM and greater than 10000 nM.
The corresponding values for `COc1ccc(C(=O)NC(=O)Nc2cc3c(cc2F)/C(=C/c2[nH]c(C)c(CC(=O)O)c2C)C(=O)N3)cc1` [D50, (Z)-2-(5-((5-fluoro-6-(3-(4-methoxybenzoyl)ureido)-2-oxoindolin-3-ylidene)-methyl)-2,4-dimethyl-1H-pyrrol-3-yl)acetic acid] are 292 to 297 °C (dec.), 1 nM and greater than 1000 nM.
The corresponding values for `O=C(NC(=O)c1ccccc1F)Nc1ccc2c(c1)NC(=O)/C2=C\c1ccc[nH]1` [D52, (Z)—N-(3-((1H-pyrrol-2-yl)methylene)-2-oxoindolin-6-ylcarbamoyl)-2-fluorobenzamide] are 276 to 281 °C (dec.), 6.5 nM and greater than 1000 nM.
Turning to `COc1ccc(C(=O)NC(=O)Nc2ccc3c(c2)NC(=O)/C3=C\c2[nH]c(C)c(C(=O)O)c2C)c(F)c1` [D57, (Z)-5-((6-(3-(2-fluoro-4-methoxybenzoyl)ureido)-2-oxoindolin-3-ylidene)methyl)-2,4-dimethyl-1H-pyrrol-3-carboxylic acid], the melting point is 295 to 300 °C (dec.). Besides, in data set [1], the IC50 was determined as 2.3 nM. Also, in data set [2], the IC50 was found to be 111 nM.
The corresponding values for `COc1ccc(C(=O)NC(=O)Nc2cc3c(cc2F)/C(=C/c2[nH]c(C)c(CCC(=O)O)c2C)C(=O)N3)c(F)c1` [D60, (Z)-3-(5-((5-fluoro-6-(3-(2-fluoro-4-methoxybenzoyl)ureido)-2-oxoindolin-3-ylidene)methyl)-2,4-dimethyl-1H-pyrrol-3-yl)propanic acid] are 275 to 280 °C (dec.), 1.5 nM and 16.3 nM.
As to `COc1cc(F)c(C(=O)NC(=O)Nc2cc3c(cc2F)/C(=C/c2[nH]c(C)c(C(=O)O)c2C)C(=O)N3)c(F)c1` [D61], the melting point is greater than 300 °C. Besides, in data set [1], the IC50 was 2.1 nM. Further, the IC50 in data set [2] was 380 nM.
The corresponding values for `CCOC(=O)c1c(C)[nH]c(/C=C2\C(=O)Nc3cc(NC(=O)NC(=O)c4ccc(OC)cc4F)ccc32)c1C` [D62, (Z)-ethyl-5-((6-(3-(2-fluoro-4-methoxybenzoyl)ureido)-2-oxoindolin-3-ylidene)methyl)-2,4-dimethyl-1H-pyrrole-3-carboxylate] are 278 to 283 °C (dec.), 1720 nM and 2980 nM.
The corresponding values for `COc1ccc(C(=O)NC(=O)Nc2ccc3c(c2)NC(=O)/C3=C\c2[nH]c(C)c(C(=O)N3CCN(C)CC3)c2C)c(F)c1` [D64, (Z)—N-(3-((3,5-dimethyl-4-(4-methylpiperazine-1-carbonyl)-1H-pyrrol-2-yl)methylene)-2-oxoindolin-6-ylcarbamoyl)-2-fluoro-4-methoxybenzamide] are 250 to 255 °C (dec.), 30.6 nM and 57.1 nM.
